According to patent US8114854B2, “Crystalline forms of gemcitabine amide prodrug, compositions and use thereof” (Eli Lilly and Company, priority 2006, dated 2012):

Experiments:
[1] = Small Intestine Homogenate Assay, human; type: in vitro ADME, humans; conditions: 6 hour incubation
Protocol: (§1) Small Intestine Homogenate Assay
(§2) To determine the stability of 1-(2,2-difluoro-2-deoxy-β-D-ribofuranosyl)-4-(2-propyl-1-oxopentyl)aminopyrimidin-2-one to enzymatic hydrolysis in the intestine, crude homogenates of small intestinal epithelial cells are prepared from sections of the upper small intestine from CD-1 mice, beagle dogs, cynomolgus monkeys, and humans. Mouse and dog homogenates are prepared from freshly collected tissue, while monkey and human homogenates are prepared from previously frozen tissues. Cells are gently scraped from intestinal segments, pooled, and homogenized in 50 mM acetate buffer using Polytron (PT-10-85). Protein concentrations are determined by standard spectrophotometric techniques. The prepared homogenates are store at −70° C. before using.
(§3) The hydrolytic rates of 1-(2,2-difluoro-2-deoxy-β-D-ribofuranosyl)-4-(2-propyl-1-oxopentyl)aminopyrimidin-2-one in small intestinal homogenates (SIH) is determined by incubating a compound of formula I (100 uM) with SIH (2.5-5 mg/mL of total protein) in acetate at pH 7.5 for up to 6 hours. Concentrations of gemcitabine released via hydrolysis is determined by LC/MS analysis after the reaction is quenched with acetonitrile. […]

[2] = system: Female CD-1 mice; assay: 4-Day Mouse Screen (toxicology); type: in vivo; conditions: oral gavage once daily for 4 days, molar equivalent of 8-mg/kg gemcitabine
Protocol: To evaluate the toxicity produced by orally administered 1-(2,2-difluoro-2-deoxy-β-D-ribofuranosyl)-4-(2-propyl-1-oxopentyl)aminopyrimidin-2-one when administered daily to female […] mice for 4 days, the gastrointestinal toxicity profiles of 1-(2,2-difluoro-2-deoxy-β-D-ribofuranosyl)-4-(2-propyl-1-oxopentyl)aminopyrimidin-2-one is compared with the historical results for gastrointestinal toxicity when gemcitabine is administered orally at 8 mg/kg in a 4-day mouse study.
Female CD-1 mice 5-8 weeks of age are dosed with 1-(2,2-difluoro-2-deoxy-β-D-ribofuranosyl)-4-(2-propyl-1-oxopentyl)aminopyrimidin-2-one by oral gavage. A dose level is chosen to approximate a molar equivalent of 8-mg/kg gemcitabine. A dose volume of 10 mL/kg is used and doses are administered once daily on 4 consecutive days. Necropsy is performed approximately 5-8 hours following the 4th dose.
Clinical signs, clinical chemistry, gross pathology, and limited histopathology (ileum, jejunum, and liver) are evaluated.

[3] = system: HCT-116 colon tumor cells; assay: In Vivo Assay, HCT-116 colon tumor xenograft; conditions: oral gavage
Protocol: HCT-116 colon tumor cells are grown in vitro under standard tissue culture conditions, harvested, washed, and 5×10^6 cells (1:1 suspension in Matrigel, Collaborative Biomedical Products, Inc) are injected subcutaneously in the rear flank of female nude mice (Charles River, CD1 nu/nu, 24-27 g, irradiated with 450 Rads within 24 h of implantation). Tumors are allowed to grow to ˜100 mm^3 before initiation of therapy. Vehicle control, 1-(2,2-difluoro-2-deoxy-β-D-ribofuranosyl)-4-(2-propyl-1-oxopentyl)aminopyrimidin-2-one or gemcitabine-HCl at various dose levels are administered to the mice by oral gavage (10 ml/kg volume) at the times indicated in the individual experiments. Compounds are administered either daily for fourteen days, every other day for a total of seven doses, or every third day for a total of four doses. […] Tumor size is determined by caliper measurements and tumor volume (mm^3) is estimated from the formula l×w^2×0.536, where l is the larger and w is the smaller of perpendicular diameters. All data (tumor measurements and animal weights) are captured twice-weekly beginning with the start of therapy and analyzed using a computer based tumor measurement system.

[4] = Mouse Pharmacokinetics; type: in vivo, male CD-1 mice
Protocol: The pharmacokinetic profiles of gemcitabine and 1-(2,2-difluoro-2-deoxy-β-D-ribofuranosyl)-4-(2-propyl-1-oxopentyl)aminopyrimidin-2-one are assessed in male CD-1 mice following oral administration at doses selected to contain approximately 10 mg/kg of gemcitabine. Designated animals (n=3/time point/compound) are sacrificed at 0.08, 0.25, 0.5, 1, 2, and 6 hours after dosing, and systemic blood samples are collected into EDTA-treated tubes containing tetrahydrouridine (0.5 mM final concentration in blood) to inhibit further metabolism of gemcitabine. An additional 3 animals are sacrificed at 0.08 hours for collection of hepatic portal blood. Plasma is isolated by centrifugation and frozen prior to analysis. Plasma concentrations of gemcitabine and prodrugs are determined by LC/MS/MS analysis. Pharmacokinetic parameters are calculated using WinNonlin software (Pharsight Corp., Mountain View, Calif.). Pharmacokinetic parameters of each prodrug are compared to those determined from administration of oral gemcitabine hydrochloride in a similar study design.

[5] = Small Intestine Homogenate Assay (all species); type: in vitro ADME, CD-1 mice, beagle dogs, cynomolgus monkeys, and humans; conditions: 100 uM, SIH 2.5-5 mg/mL protein, pH 7.5
Protocol: as §1, §2, §3

[6] = pH Chemical Stability Assay; type: physicochemical; conditions: pH range 1 to 8, after four hours, 40° C., 100 mcg/mL in buffers
Protocol: pH Chemical Stability Assay
The pH chemical stability is assessed using a semi-automated HPLC technique. Samples of 1-(2,2-difluoro-2-deoxy-β-D-ribofuranosyl)-4-(2-propyl-1-oxopentyl)aminopyrimidin-2-one are prepared at 100 mcg/mL in five buffers representing the pH range throughout the gastrointestinal tract (pH1-pH8). Samples are loaded onto an HPLC autosampler incubated at 40° C. Samples are repeatedly injected on the HPLC at hourly intervals for up to 24 hours with an HPLC column that separates a compound of formula I from gemcitabine. The peak area of 1-(2,2-difluoro-2-deoxy-β-D-ribofuranosyl)-4-(2-propyl-1-oxopentyl)aminopyrimidin-2-one is monitored by UV detection over time and are compared to initial peak areas to determine stability.

[7] = system: Male and female CD-1 mice; assay: 14 Day Mouse Study (toxicology); type: in vivo
Protocol: A 14-Day Mouse Study is conducted to evaluate whether 1-(2,2-difluoro-2-deoxy-β-D-ribofuranosyl)-4-(2-propyl-1-oxopentyl)aminopyrimidin-2-one produces adverse effects in mice following 14 days of oral gavage dosing and to determine the plasma concentrations of 1-(2,2-difluoro-2-deoxy-β-D-ribofuranosyl)-4-(2-propyl-1-oxopentyl)aminopyrimidin-2-one and its metabolites gemcitabine HCl and deoxydifluorouridine after 1 or 14 doses.
Male and female CD-1 mice 9-12 weeks of age are dosed with 1-(2,2-difluoro-2-deoxy-β-D-ribofuranosyl)-4-(2-propyl-1-oxopentyl)aminopyrimidin-2-one drug by oral gavage. A range of doses is selected in an effort to determine a maximum tolerated dose and dose limiting toxicity. A dose volume of 10 mL/kg is used and doses are administered once daily.
Clinical signs, body weight, food consumption, hematology, clinical chemistry, plasma concentrations of 1-(2,2-difluoro-2-deoxy-β-D-ribofuranosyl)-4-(2-propyl-1-oxopentyl)aminopyrimidin-2-one and metabolites gemcitabine HCl and deoxydifluorouridine, and pathology (including gross pathology, organ weights, and histopathology) are evaluated.

[8] = system: Male and female beagle dogs; assay: 7-Day Dog Study (toxicology); type: in vivo; conditions: oral via capsule once daily for 7 days
Protocol: To evaluate the toxicity profile of 1-(2,2-difluoro-2-deoxy-β-D-ribofuranosyl)-4-(2-propyl-1-oxopentyl)aminopyrimidin-2-one when administered to Beagle dogs for 7 days, and to determine the plasma concentrations of 1-(2,2-difluoro-2-deoxy-β-D-ribofuranosyl)-4-(2-propyl-1-oxopentyl)aminopyrimidin-2-one and metabolites gemcitabine HCl and deoxydifluorouridine after 1 or 7 doses, a 7-day dog study is conducted.
Male and female beagle dogs 6-48 months of age are dosed orally via capsule with 1-(2,2-difluoro-2-deoxy-β-D-ribofuranosyl)-4-(2-propyl-1-oxopentyl)aminopyrimidin-2-one. A range of doses is selected in an effort to determine a maximum tolerated dose and dose limiting toxicity. A dose volume of 1 mL/kg is used and doses are administered once daily.
Clinical signs, body weight, food consumption, body temperature, hematology (including coagulation), clinical chemistry, urinalysis, plasma concentrations of 1-(2,2-difluoro-2-deoxy-β-D-ribofuranosyl)-4-(2-propyl-1-oxopentyl)aminopyrimidin-2-one and its metabolites gemcitabine HCl and deoxydifluorouridine, and pathology (including gross pathology, organ weights, and histopathology) were evaluated.

[9] = Monkey Pharmacokinetics Assay; type: in vivo; conditions: administered intravenously to cynomolgus monkeys
Protocol: Monkey Pharmacokinetics Assay
The pharmacokinetic profiles of gemcitabine and a 1-(2,2-difluoro-2-deoxy-β-D-ribofuranosyl)-4-(2-propyl-1-oxopentyl)aminopyrimidin-2-one are assessed in cynomolgus monkeys following oral and intravenous administration in a crossover design. Compounds are administered at doses selected to contain approximately 10 mg/kg of gemcitabine. Blood samples are collected into EDTA-treated tubes containing tetrahydrouridine (0.5 mM final concentration in blood) at designated intervals for up to 48 hours. Animals are pretreated with ranitidine (intravenous, 5 mg/kg) in the oral dosing periods. Plasma is isolated by centrifugation and frozen prior to analysis. Plasma concentrations of gemcitabine and 1-(2,2-difluoro-2-deoxy-β-D-ribofuranosyl)-4-(2-propyl-1-oxopentyl)aminopyrimidin-2-one are determined by LC/MS/MS analysis. Pharmacokinetic parameters are determined using WinNonlin software (Pharsight Corp., Mountain View, Calif.).

[10] = Liver S9 Hydrolysis Assay, human; type: in vitro ADME; conditions: human liver S9, 6 hour incubation
Protocol: (§4) Liver S9 Hydrolysis Assay
(§5) Hydrolysis of 1-(2,2-difluoro-2-deoxy-β-D-ribofuranosyl)-4-(2-propyl-1-oxopentyl)aminopyrimidin-2-one by liver enzymes is determined by liver hydrolysis assay. Liver homogenates are prepared from CD-1 mouse, beagle dog, cynomolgus monkey, and human livers. Liver tissues are cut into small pieces using scissors, then, homogenized in 50 mM acetate buffer using Polytron (PT-10-85) for 1 min. Post-mitochondrial (S9) fractions are prepared from each by ultracentrifugation at 9,000×g at 4° C. for 10 min. Mouse, dog and monkey liver S9 fractions are prepared from freshly collected tissues, while human liver S9 are prepared from previously frozen tissue. After centrifugation, the supernatant is collected and protein concentrations are determined by standard spectrophotometric techniques. The prepared S9 fractions are store at −70° C. before using.
(§6) The hydrolytic rates of 1-(2,2-difluoro-2-deoxy-β-D-ribofuranosyl)-4-(2-propyl-1-oxopentyl)aminopyrimidin-2-one in liver S9 is determined by incubating compound (10 uM) with S9 (2 mg/mL of total protein) in phosphate buffered saline at pH 8.0 for up to 6 hours. Concentrations of gemcitabine released via hydrolysis are determined by LC/MS analysis after the reaction is quenched with acetonitrile. […]

[11] = Liver S9 Hydrolysis Assay (all species); type: in vitro ADME, CD-1 mouse, beagle dog, cynomolgus monkey, and human; conditions: all species described; 10 uM, S9 2 mg/mL protein, pH 8.0
Protocol: as §4, §5, §6

[12] = Small Intestine Homogenate Assay, monkey; type: in vitro ADME, cynomolgus monkeys; conditions: 6 hour incubation
Protocol: as §1, §2, §3

[13] = Liver S9 Hydrolysis Assay, monkey; type: in vitro ADME, cynomolgus monkey; conditions: monkey liver S9, 6 hour incubation
Protocol: as §4, §5, §6

[14] = system: mice; conditions: comparable exposures via intravenous dosing; cited from earlier work
[15] = system: mice; conditions: single oral (gavage) dose of 167, 333, or 500 mg/kg; cited from earlier work
[16] = result of first pass metabolism; cited from earlier work

Row | SMILES | total compound converted to gemcitabine [1] | severity of atrophic intestinal changes or enteropathy versus gemcitabine HCl [2] | overall toxicity versus equivalent amount of gemcitabine-HCl ([3]; HCT-116 tumor-bearing nude mice) | antitumor efficacy versus equivalent dose of gemcitabine-HCl ([3]; HCT-116 tumors in nude mice) | concentrations of intact prodrug in hepatic portal plasma ([4]; 0.08 hours after oral dosing, CD-1 mice) | hydrolysis in vivo to release gemcitabine ([4]; administered orally to CD-1 mice, dose containing approximately 10 mg/kg of gemcitabine) | plasma exposure to gemcitabine compared to direct oral administration of gemcitabine hydrochloride ([4]; oral, CD-1 mice) | rate of hydrolysis in small intestine homogenate [5] | degraded to gemcitabine [6] | systemic gemcitabine exposure from the prodrug versus gemcitabine HCl on a molar equivalent basis ([7]; 14-day oral gavage study) | enteropathy versus gemcitabine HCl on a molar equivalent basis ([7]; 14 days of oral gavage dosing) | hematotoxicity and other toxicities, including GI toxicity [8] | hydrolysis in vivo to release gemcitabine [9] | total compound converted to gemcitabine [10] | hydrolysis in liver S9 [11] | total compound converted to gemcitabine [12] | total compound converted to gemcitabine [13] | death or gastrointestinal toxicity [14] | adverse dose-limiting intestinal lesions [15] | oral bioavailability [16]
1 | CCCC(CCC)C(=O)Nc1ccn([C@@H]2O[C@H](CO)[C@@H](O)C2(F)F)c(=O)n1 [1-(2,2-difluoro-2-deoxy-β-D-ribofuranosyl)-4-(2-propyl-1-oxopentyl)aminopyrimidin-2-one] | less than 3% | significant reduction | less overall toxicity | comparable | relatively high concentrations | extensively hydrolyzed | increased | slow rate of hydrolysis | Less than 25% | approximately twice | less enteropathy | consistent with what has been previously described for parenteral gemcitabine | extensively hydrolyzed | approximately 35% | hydrolyzed | less than 3% | approximately 35% | – | – | –
2 | Nc1ccn([C@@H]2O[C@H](CO)[C@@H](O)C2(F)F)c(=O)n1 [gemcitabine, 2′,2′-difluoro-2′-deoxycytidine] | – | – | – | – | – | – | – | – | – | – | – | – | – | – | – | – | – | did not result in death or gastrointestinal toxicity | moderate-to-marked loss of mucosal epithelium (atrophic enteropathy) | poor oral bioavailability
